“And” between values parts separate entries of the source, which are not always exact repeats. Equal entries are not always repeated.
Assays:
A549 cells = test: Clonogenic survival, DMF; format: cell-based, human; settings: A549, 50 μM DMA 2 h before radiation
Method: (§1) Exponentially growing U87, HEK293, MRC5 and A549 cells were treated with 50 μM DMA for 2 h and irradiated with 0, 1, 2, 5, 8 and 10 Gy of radiation dose as indicated at RT and trypsinized immediately at 37° C. Cells were seeded into 60 mm dishes in triplicate at various cell densities aiming approximately 100 colonies/dish. Percentage radioprotection was calculated by following formula % of Protection in radiation treated cells=(SFDMA+radiaion)−(SFRadiaion)/SFControl×100 Where SF is survival fraction in respective conditions. Dose modification factor (DMF) was calculated as ratio of 50% survival in DMA+radiation to 50% survival in radiation only.

HEK293 cells [1] = test: Clonogenic survival, DMF; format: cell-based, human; settings: HEK293, 50 μM DMA 2 h before radiation
Method: as §1

MRC5 cells = test: Clonogenic survival, DMF; format: cell-based, human; settings: MRC5, 50 μM DMA 2 h before radiation
Method: as §1

U87 cells = test: Clonogenic survival, DMF; format: cell-based, human; settings: U87, 50 μM DMA 2 h before radiation
Method: as §1

nude mice = test: Nude mice survival after 7Gy TBI; format: in vivo, mouse; settings: 50 mg/kg i.p. 2 h prior to 7Gy TBI
Method: Mice were divided into 4 groups containing 5 animals each. Group 1, sham control; Group 2, DMA treated (50 mg/kg, i.p.); Group 3, TBI 7Gy; Group 4, treated with DMA (50 mg/kg i.p.) prior to TBI 7Gy.

[2] = test system: Balb/c mice spleen and small intestine; test: BrdU and IL6 immunohistochemistry; format: in vivo, mouse
Method: Spleen cell survival was determined 3 days after irradiation by 5-bromo-2′-deoxyuridine (BrdU, i.p., 100 mg/kg) to each mouse 2 h before euthanasia. Similarly small intestine was checked for IL6 expression. BrdU and IL6 immunohistochemistry (IHC) were performed as per standard protocol against BrdU and IL6. 3,3,-diaminobenzidine (DAB) was used to detect antigen-antibody binding. Counterstaining was done with hematoxylin, and after dehydration, slides were mounted with glycerogelatin.

HEK293 cells [3] = test: Actively proliferating cells by BrdU uptake; format: cell-based, human; settings: 48 h
Method: FIG. 5. […] Tissue sections performed 3 days postirradiation (8Gy) with and without 50 mg/kg bw, i.v. DMA pretreatment with the control and DMA treated tissues (A) Images showing spleen, intestine and liver analysis at magnification 40× objective lens. (B) Small intestine, spleen and lung sections from melanoma tumor bearing mice at 40× & 60× objective lens (C) Immunohistochemical analysis of BrdU uptake in spleen and IL6 protein expression in intestine tissues at 100× objective lens magnification. (D) Graphical representation of actively proliferating HEK293 at 48 h and Balb/c intestinal cells by BrdU uptake under each condition (n=3/group from 2 independent experiments).

[4] = test system: Akt/NFκB pathway in melanoma tissue of mice; test: Immunoblot analysis in tumor tissue; format: in vivo, mouse
Method: EAT and B16F10 melanoma cell line were harvested and 10×10^6 and 0.8×10^6 cells respectively were injected subcutaneously in the Balb/c mice (n=24) on the right thigh. When tumors reached 0.5 cm^3 in volume, animals were randomized and divided into 4 different groups. The first test group was treated with 50 mg/kg, i.v. DMA, second test group subjected to 8 Gy TBI. Third group received 50 mg/kg, i.v. DMA and 8 Gy TBI both. The control group was similarly administered normal saline (0.1 ml, i.v.). On every alternate days, tumor-bearing thigh of each animal was shaved, and the longest (1) and shortest diameter (b) of the tumors along with height (h) were measured with the help of a vernier calliper. Tumor weight of each animal was calculated using the formula l*b*h/2.
HEK293, MRC5 and A549 cells were treated as indicated earlier. The cell pellet was resuspended in RIPA buffer and allowed to swell on ice for 30 min. Balb/c intestine tissue and tumor tissues were homogenized in RIPA buffer. Protein concentration was determined using Bradford's Assay (Bangalore Genei). […] Signals were detected using enhanced chemiluminescence (ECL system, Pierce) on X-ray film.

HEK293 cells [5] = test: Clonogenicity assay with Akt depleted cells; format: cell-based, human; settings: 5Gy
Method: HEK 293 cells were transfected with Akt siRNA and control-siRNA (Santa Cruz Biotechnology Inc.) according to the manufacturer's instructions. Semi-quantitative RT-PCR was performed with primers specific for Akt and ACTB in control siRNA and Akt siRNA treated HEK cells for analysing knockdown of Akt […] gene expression.
Exponentially growing HEK cells post siRNA (siRNA-Akt and control siRNA transfections) were treated with 50 μM DMA for 1 h and irradiated with 0, 1, 2, 5 and 8 Gy of radiation dose at RT. Cells were seeded into 60 mm dishes in triplicate, at various densities and cells were stained with crystal violet to count colonies. Same experiment was done with control siRNA-transfected HEK cells. Percentage radioprotection was calculated by following formula % of Protection in radiation treated cells=(Survival fraction in siRNA+DMA treated cells/Survival fraction in only siRNA treated cells/)×100.

[6] = in vivo (earlier work, Nimesh et al., 2015); cited from earlier work
[7] = DMA+Radiation vs irradiated mice

## COc1ccc(-c2nc3cc(-c4nc5cc(N6CCN(C)CC6)ccc5[nH]4)ccc3[nH]2)cc1OC [DMA, 5-(4-methylpiperazin-1-yl)-2-[2′-(3,4-dimethoxyphenyl)-5′-benzimidazolyl]benzimidazole]
A549 cells
  DMF at 50% survival: 1.38
HEK293 cells [1]
  DMF at 50% survival: 1.44
MRC5 cells
  DMF at 50% survival: 1.1
U87 cells
  DMF at 50% survival: 1.067 and 1.07
Nude mice
  30-days survival of nude mice: 40%
[2]; DMA only treated mice
  IL6 level in small intestine (IHC): almost equal to control mice
[2]; [7]
  BrdU-positive cells (IHC): more BrdU-positive cells
  IL6 level in small intestine (IHC): higher level of IL6
HEK293 cells [3]; HEK293, DMA treated
  Cells at active S phase: 30%
HEK293 cells [3]; HEK293, DMA+Radiation (5Gy)
  S phase cells: came back to normal
[4]; DMA pretreated to irradiation of TBM vs other conditions
  Phosphorylated Akt level: lower
[4]; tumor tissues of TBM, 50 mg/kg i.v. + 8Gy TBI
  Akt/NFκB signaling in response to radiation: does not modulate
HEK293 cells [5]; Akt siRNA treated cells
  % radioprotection (clonogenicity): 7.5%
HEK293 cells [5]; control siRNA treated cells
  % radioprotection (clonogenicity): 40.6%
[6]
  Maximum tolerated dose (MTD), no toxicity in vivo: 2000 mg/kg
